Patent publication US20200170291A1, “PROCESSES FOR PRODUCING LACTITOL GRANULATES AND GRANULATES PRODUCED THEREBY” (PARTICLE DYNAMICS INTERNATIONAL, LLC, priority 2017, published 2020)
Values joined by “and” are separate entries in the source; they are usually repeats but may differ in a detail not shown here. Equal entries are not always repeated. Where two headings read alike, the source gives them in different places.

Legend:
Type in all cases: physicochemical
[1] = ROTAP sieve particle size distribution (% retained); conditions: for Particle Size Distribution (% Retained) 12: 12 mesh screen; for Particle Size Distribution (% Retained) 20: 20 mesh screen; for Particle Size Distribution (% Retained) 40: 40 mesh screen; for Particle Size Distribution (% Retained) 60: 60 mesh screen; for Particle Size Distribution (% Retained) 80: 80 mesh screen; for Particle Size Distribution (% Retained) 100: 100 mesh screen; for Particle Size Distribution (% Retained) 200: 200 mesh screen; for Particle Size Distribution (% Retained) Pan: receiving pan
Procedure: (§1) All particle size (PS) analyses were conducted using a ROTAP Particle Size Analyzer and a MALVERN MASTERSIZER 2000, except as otherwise indicated. All particle size data were measured in microns and analyzed via the MALVERN MASTERSIZER 2000.
Particle Size: During the granulation process, an approximately 300 g sample is taken from material of the finished product drum starting with the first drum and every sixth drum thereafter, including the last drum (i.e. drum #1, 7, 13, 19 etc.). […] Each fraction was weighed and percent retained was calculated.

[2] = MALVERN MASTERSIZER 2000 particle size (d10, d50, d90); conditions: for d50: after U5 COMIL, 0.032″ round hole screen
Procedure: as §1

[3] = Moisture, loss on drying (LOD), halogen moisture balance; conditions: final / as dried material
From the text: Unless otherwise indicated, the following equipment was used in Examples 1a and 1b: R&D TURBULIZER High Shear Granulator, Model TCB; Large ACCURATE Powder Feeder; AEROMATIC Fluid Bed Dryer, Model S-2; ADMIX High Shear Mixer; SWECO Vibratory Sieve, 18″; STURTEVANT MICRONIZER Jet Mill, Model 45DM; Halogen Moisture Balance (to determine moisture levels); MALVERN MASTERSIZER 2000 (particle size analyzer); ROTAP particle size analyzer; and a Tapped Density Tester.
A sample of lactitol monohydrate (DANISCO) was evaluated for particle size moisture (loss on drying (LOD)), bulk density, and tapped density. […] A photo micrograph of the material was also generated (FIG. 2).
At approximately 125 g/min, the expected moisture level would be approximately 3.4%. However, at this initial binder flow rate, the granulation exiting the mixer felt too dry and was not as granular as desired. […] The final setting was 37 Hz or approximately 140 g/min. At this binder flow rate the expected granulation moisture level would be approximately 3.8%. No additional adjustments were made to the operating conditions over the remainder of the run. The final wet granulation moisture was approximately 2%. In order to improve the accuracy of the LOD moisture results the moisture balance test conditions were altered.
The expected moisture level at this setting would be approximately 4%. […]

[4] = Bulk density
Procedure: (§2) Tapped density of the granulates of the present invention is typically at least about 0.6 g/mL, at least about 0.75 g/mL, at least about 0.80 g/mL, at least about 0.85 g/mL, or at least about 0.90 g/mL. Overall, the tapped density of the granulates of the present invention generally ranges from about 0.6 g/mL to about 1.0 g/mL, from about 0.7 g/mL to about 0.95 g/mL, or from about 0.8 g/mL to about 0.9 g/mL (e.g., about 0.85 g/mL). Bulk and tapped density as reported herein are determined by USP <616>, but it should be understood that other methods known in the art may be also be utilized to determine the tapped densities of compositions of the present invention.
(§3) Tare a 250 mL graduated glass cylinder. Fill with 100 grams of sample. Reweigh to determine weight. Record Initial Volume. The bulk density is the weight in grams divided by the volume (mL). Tap 1000 times by the automated tapping device. Read final volume. The tapped density is the weight in grams divided by the tapped volume (mL).

[5] = Tapped density
Procedure: as §2, §3

[6] = Moisture content by Karl Fischer (KF)
Procedure: As noted, lactitol exists in the monohydrate, dihydrate, trihydrate, and hexahydrate forms. Lactitol monohydrate is the preferred form of lactitol for use. Lactitol monohydrate is defined by the EU-NP and USP-NF as having moisture content of between 4.5 wt % and 5.5 wt %. As used herein, the term “moisture content” refers to the total moisture content of a composition, including both free and bound water. Moisture contents reported here are determined by the Karl-Fischer (KF) method, but may also be determined by other suitable methods known in the art.
During the weighing of the ingredients for the binder solution and during the set up for granulation, an approximately 100 g sample representing each raw material is taken and placed into an appropriately labeled container. An approximately 0.3 gram sample is dispersed in methanol and test using a Karl Fischer moisture analyzer with HYDRANAL Composite 5 titrant using a 60 sec extraction time. Percent moisture was reported.
For each Qualification lot, at the beginning and middle of each shift samples were pulled using a sample thief from three locations within the tub after granulation but before drying. These samples were tested for moisture as described above.
Moisture content was also tested using the same procedure after the second drying step.

[7] = HANSON FLODEX powder flowability (viscosity)
From the text: Samples were also subjected to flowability testing using a HANSON FLODEX Powder Flowability tester. The basis for the method is the powders ability to fall freely through a hole in a plate. The diameter of the smallest hole through which the powder passes is considered the flowability index. The flowability index (radius of hole size in cm) along with the bulk density of the material tested are then used to determine the viscosity (internal friction coefficient) of the powder. Lower powder viscosity indicates better flowability.
Samples of the finished lactitol granulations produced during execution of the commercial optimization protocol were also evaluated for flow using the HANSON Intrinsic Flowability Test. During the test, the smallest hole (in millimeters) that the product will flow through is determined in the FLODEX apparatus. Using this information and the bulk density of each powder (as determined in a 250 mL graduated cylinder) the coefficient of friction or viscosity (K) was calculated. The viscosity K (in poises) is equal to 490 (½ the acceleration of gravity) times the radius of the hole in centimeters times the bulk density of the sample. The result K is then multiplied by 100 to express the viscosity in centipoises.

Question: Which results are given for `O.OC[C@@H](O)[C@@H](O[C@@H]1O[C@H](CO)[C@H](O)[C@H](O)[C@H]1O)[C@H](O)[C@@H](O)CO` [Raw Lactitol B]?
Answer: Particle Size Distribution (% Retained) 12 [1]: 0.0%; Particle Size Distribution (% Retained) 20 [1]: 0.3%; Particle Size Distribution (% Retained) 40 [1]: 64.4%; Particle Size Distribution (% Retained) 60 [1]: 29.9%; Particle Size Distribution (% Retained) 80 [1]: 3.6%; Particle Size Distribution (% Retained) 100 [1]: 0.7%; Particle Size Distribution (% Retained) 200 [1]: 0.8%; Particle Size Distribution (% Retained) Pan [1]: 0.3%; PS d10 [2]: 94.2 μ; PS d50 [2]: 365.3 μ; PS d90 [2]: 720.3 μ; Moisture NMT 3.0% [3]: 1.28%; Bulk Density [4]: 0.677 g/mL; Tapped Density [5]: 0.754 g/mL

Question: Which results are given for `OC[C@@H](O)[C@@H](O[C@@H]1O[C@H](CO)[C@H](O)[C@H](O)[C@H]1O)[C@H](O)[C@@H](O)CO` [Jet Milled B]?
Answer: Particle Size Distribution (% Retained) 12 [1]: 0.0%; Particle Size Distribution (% Retained) 20 [1]: 0.0%; Particle Size Distribution (% Retained) 40 [1]: 1.9%; Particle Size Distribution (% Retained) 60 [1]: 14.4%; Particle Size Distribution (% Retained) 80 [1]: 17.2%; Particle Size Distribution (% Retained) 100 [1]: 10.7%; Particle Size Distribution (% Retained) 200 [1]: 36.3%; Particle Size Distribution (% Retained) Pan [1]: 19.5%; PS d10 [2]: 5.3 μ; PS d50 [2]: 60.0 μ; PS d90 [2]: 316.2 μ; d50 (mean particle size by volume distribution) [2]: 60 microns; Bulk Density [4]: 0.670 g/mL; Tapped Density [5]: 0.933 g/mL

Question: Which results are given for `OC[C@@H](O)[C@@H](O[C@H]1O[C@H](CO)[C@H](O)[C@H](O)[C@H]1O)[C@H](O)[C@@H](O)CO` [Raw Lactitol, 4-O-α-D-Galactopyranosyl-D-glucitol]?
Answer: Particle Size Distribution (% Retained) 12 [1]: 0.0%; Particle Size Distribution (% Retained) 20 [1]: 10.0%; Particle Size Distribution (% Retained) 40 [1]: 57.0%; Particle Size Distribution (% Retained) 60 [1]: 26.3%; Particle Size Distribution (% Retained) 80 [1]: 4.0%; Particle Size Distribution (% Retained) 100 [1]: 0.9%; Particle Size Distribution (% Retained) 200 [1]: 1.3%; Particle Size Distribution (% Retained) Pan [1]: 0.5%; PS d10 [2]: 112.4 μ; PS d50 [2]: 426.1 μ; PS d90 [2]: 922.8 μ; Particle Size Span [2]: 1.9; d50 (mean particle size by volume distribution) [2]: 426 microns; d50 ([2]; round bar impeller, 1500 rpm): 235 microns; d50 ([2]; round bar impeller, 1800 rpm): 196 microns; d50 ([2]; square bar impeller, 4200 rpm): approximately 115 microns; Moisture NMT 3.0% [3]: 0.61%; KF moisture [6]: 4.93%; Bulk Density [4]: 0.798 g/mL; Tapped Density [5]: 0.925 g/mL; Tapped Density ([5]; listed as Raw Lactitol A): 0.925 g/mL; Tapped Density ([5]; listed as lactitol monohydrate): 0.93 g/mL; Flow Viscosity [7]: ~10 CPS (×1000); viscosity (flowability) [7]: approximately 9,776 cps

Question: For `OC[C@@H](O)[C@@H](O[C@@H]1O[C@H](CO)[C@H](O)[C@H](O)[C@H]1O)[C@H](O)[C@@H](O)CO` [milled lactitol], which KF moisture [6] is on record?
Answer: The KF moisture was 5.05% and 4.99%.
